This is an account of results in US4892875A, “Substituted heterocyclylalkyl esters of 1,4-dihydropyridine-3,5-dicarboxylic acids” (Takeda Chemical Industries, Ltd., priority 1982, dated 1990).

The subject of assay [1] is spontaneously hypertensive rats. In words: Antihypertensive action (systolic blood pressure, caudal artery) in male spontaneously hypertensive rats. The note with it: 10 mg/kg oral; for Change in blood pressure 1 hr. after treatment / Change in blood pressure 5 hrs. after treatment: after minus before medication, * P < 0.05 vs control; for Duration of antihypertensive effect: measured 1, 5, 8 and 24 hours after administration. It is filed as in vivo, rat. As to the method:
Male spontaneously hypertensive rats aged 10 to 11 weeks were used (in groups of 3 to 6 individuals). […] Each test compound was suspended in a 5% solution of gum arabic and orally administered. The dosage was 10 mg/kg for all compounds. Animals in a control group was given the above solution of gum arabic only.

Assay [2] has the same test system. As to the kind of experiment: Renal blood flow increasing effect (renal circulation improving effect) in anesthetized male spontaneously hypertensive rats. It is filed as in vivo. The note with it: Rattus norvegicus, 0.01 mg/kg intravenous, * P < 0.05 vs control. The procedure:
Male spontaneously hypertensive rats aged 10 to 11 weeks (3 to 6 animals per group) were anesthetized with pentobarbital and used. After laparotomy, an electromagnetic flowmeter probe (Narco) was fitted to the left renal artery and the renal blood flow was continuously recorded on a polygraph (Sanei Sokki K.K.). […] Each test compound was dissolved in polyethylene glycol 400 to prepare a stock solution. This stock solution was diluted five-fold with physiological saline and the dilution was intravenously administered to rats in a volume of 0.5 ml/kg body weight. The dosage was 0.01 mg/kg for all test compounds. The renal blood flow was measured over a period of 40 minutes following the medication. The values shown are: [formula]

[3] abbreviates: 1 min, 1 minute, read-out: Change in renal blood flow, 1 Minute after medication.
The mark [4] stands for this setting: 20 min, 20 minutes, read-out: Change in renal blood flow, 20 Minutes after medication.
Where [5] appears, read: 40 min, 40 minutes, read-out: Change in renal blood flow, 40 Minutes after medication.

Counter-ions that a name gives are not always drawn. Like-named read-outs stand apart in the source and are kept apart here.

As for `COC(=O)C1=C(C)NC(C)=C(C(=O)OCCN2CCN(C(c3ccccc3)c3ccccc3)CC2)C1c1cccc([N+](=O)[O-])c1.Cl.Cl` (stereo not drawn) [Example 1, 2-(4-benzhydryl-1-piperazinyl)ethyl methyl 2,6-dimethyl-4-(3-nitrophenyl)-1,4-dihydropyridine-3,5-dicarboxylate dihydrochloride], in assay [1], the “Change in blood pressure 1 hr. after treatment” value is -89 mmHg, the “Change in blood pressure 5 hrs. after treatment” value is listed as -91 mmHg and the “Duration of antihypertensive effect” value is greater than 24 h. In assay [2] (setting [3]), the change in vivo at 0.01 mg/kg came to 10.4%. Further, the change in vivo at 0.01 mg/kg in assay [2] (setting [4]) was 13.4%. Also, the change in vivo at 0.01 mg/kg in assay [2] (setting [5]) came to 12.8%.

With `COC(=O)C1=C(C)NC(C)=C(C(=O)OCCN2CCN(C(c3ccccc3)c3ccccc3)CC2)C1c1cccc(Cl)c1Cl` (stereo not drawn) [Example 6, 2-(4-benzhydryl-1-piperazinyl)ethyl methyl 4-(2,3-dichlorophenyl)-2,6-dimethyl-1,4-dihydropyridine-3,5-dicarboxylate], in assay [1], the “Change in blood pressure 1 hr. after treatment” value is listed as -30 mmHg, the “Change in blood pressure 5 hrs. after treatment” value was -33 mmHg and the “Duration of antihypertensive effect” value lay in the range of 8 to 24 h. For the same compound, in assay [2] (setting [3]), the change in vivo at 0.01 mg/kg was found to be 4.5%. Besides, the change in vivo at 0.01 mg/kg in assay [2] (setting [4]) was found to be 7.5%. Moreover, the change in vivo at 0.01 mg/kg in assay [2] (setting [5]) was determined as 6%.

Turning to `COC(=O)C1=C(C)NC(C)=C(C(=O)OCCN2CCN(C(c3ccc(F)cc3)c3ccc(F)cc3)CC2)C1c1cccc([N+](=O)[O-])c1` (stereo not drawn) [Example 8, 2-[4-(4,4'-difluorobenzhydryl)-1-piperazinyl]ethyl methyl 2,6-dimethyl-4-(3-nitrophenyl)-1,4-dihydropyridine-3,5-dicarboxylate], in assay [1], the “Change in blood pressure 1 hr. after treatment” value is given as -96 mmHg, the “Change in blood pressure 5 hrs. after treatment” value is -98 mmHg and the “Duration of antihypertensive effect” value was greater than 24 h. In addition, the change in vivo at 0.01 mg/kg in assay [2] (setting [3]) amounted to 5.7%. Further, the change in vivo at 0.01 mg/kg in assay [2] (setting [4]) was 6.4%. The change in vivo at 0.01 mg/kg in assay [2] (setting [5]) was 9.7%.

In the case of `COC(=O)C1=C(C)NC(C)=C(C(=O)OCCN2CCN(C(c3ccc(OC)cc3)c3ccc(OC)cc3)CC2)C1c1cccc([N+](=O)[O-])c1` (stereo not drawn) [Example 10, 2-[4-(4,4'-dimethoxybenzhydryl)-1-piperazinyl]ethyl methyl 2,6-dimethyl-4-(3-nitrophenyl)-1,4-dihydropyridine-3,5-dicarboxylate], in assay [1], the “Change in blood pressure 1 hr. after treatment” value is recorded as -88 mmHg. For the same compound, in assay [1], the “Change in blood pressure 5 hrs. after treatment” value is recorded as -57 mmHg. In assay [1], the “Duration of antihypertensive effect” value fell in the range of 8 to 24 h. Further, the change in vivo at 0.01 mg/kg was found to be 6.9% in assay [2] (setting [3]), 8.3% in assay [2] (setting [4]) and 6.8% in assay [2] (setting [5]).

With `COC(=O)C1=C(C)NC(C)=C(C(=O)OCCN2CCCN(C(c3ccccc3)c3ccccc3)CC2)C1c1cccc([N+](=O)[O-])c1` (stereo not drawn) [Example 15, 2-(4-benzhydrylhomopiperazin-1-yl)-ethyl methyl 2,6-dimethyl-4-(3-nitrophenyl)-1,4-dihydropyridine-3,5-dicarboxylate], in assay [1], the “Change in blood pressure 1 hr. after treatment” value was -38 mmHg, the “Change in blood pressure 5 hrs. after treatment” value is recorded as -18 mmHg and the “Duration of antihypertensive effect” value lay in the range of 5 to 8 h. Further, in assay [2] (setting [3]), the change in vivo at 0.01 mg/kg was 4.2%. Besides, the change in vivo at 0.01 mg/kg in assay [2] (setting [4]) came out at 4.2%. The change in vivo at 0.01 mg/kg in assay [2] (setting [5]) turned out to be 2.9%.

Consider `COC(=O)C1=C(C)NC(C)=C(C(=O)OCCN2CCN(c3cccc(C(F)(F)F)c3)CC2)C1c1cccc([N+](=O)[O-])c1` (stereo not drawn) [Example 18, methyl 2-[4-(3-trifluoromethylphenyl)-1-piperazinyl]ethyl 2,6-dimethyl-4-(3-nitrophenyl)-1,4-dihydropyridine-3,5-dicarboxylate], for which, in assay [1], the “Change in blood pressure 1 hr. after treatment” value is reported as -68 mmHg, the “Change in blood pressure 5 hrs. after treatment” value is on record as -43 mmHg and the “Duration of antihypertensive effect” value was 8 to 24 h. In assay [2] (setting [3]), the change in vivo at 0.01 mg/kg came out at 8.8%. Also, the change in vivo at 0.01 mg/kg in assay [2] (setting [4]) stood at 4.2%. In addition, in assay [2] (setting [5]), the change in vivo at 0.01 mg/kg worked out at 5%.

Regarding `COC(=O)C1=C(C)NC(C)=C(C(=O)OCCN2CCN(C(c3ccccc3)c3ccccc3)CC2)C1c1cccc(Cl)c1` (stereo not drawn) [Example 22, 2-(4-benzhydryl-1-piperazinyl)ethyl methyl 4-(3-chlorophenyl)-2,6-dimethyl-1,4-dihydropyridine-3,5-dicarboxylate], the “Change in blood pressure 1 hr. after treatment” value in assay [1] is on record as -97 mmHg. Further, the “Change in blood pressure 5 hrs. after treatment” value in assay [1] was -83 mmHg. Also, the “Duration of antihypertensive effect” value in assay [1] fell in the range of 8 to 24 h. Moreover, the change in vivo at 0.01 mg/kg in assay [2] (setting [3]) worked out at 7.5%; in assay [2] (setting [4]), 7.8%; in assay [2] (setting [5]), 9.6%.

For `COC(=O)C1=C(C)NC(C)=C(C(=O)OCCN2CCN(C(c3ccccc3)c3ccccc3)CC2)C1c1cccc(C(F)(F)F)c1` (stereo not drawn) [Example 23, 2-(4-benzhydryl-1-piperazinyl)ethyl methyl 2,6-dimethyl-4-(3-trifluoromethylphenyl)-1,4-dihydropyridine-3,5-dicarboxylate], the “Change in blood pressure 1 hr. after treatment” value in assay [1] is -59 mmHg. The “Change in blood pressure 5 hrs. after treatment” value in assay [1] is -66 mmHg. In assay [1], the “Duration of antihypertensive effect” value was 8 to 24 h. In addition, the values for the change in vivo at 0.01 mg/kg in assay [2] (setting [3]), in assay [2] (setting [4]) and in assay [2] (setting [5]) were 6.7%, 9.7% and 10.9%, respectively.

For the compound `CCOC(=O)C1=C(C)NC(C)=C(C(=O)OCCN2CCN(C(c3ccc(C)cc3)c3ccc(C)cc3)CC2)C1c1cccc([N+](=O)[O-])c1` (stereo not drawn) [Example 31, 2-[4-(4,4'-dimethylbenzhydryl)-1-piperazinyl]ethyl ethyl 2,6-dimethyl-4-(3-nitrophenyl)-1,4-dihydropyridine-3,5-dicarboxylate], in assay [1], the “Change in blood pressure 1 hr. after treatment” value is -77 mmHg, the “Change in blood pressure 5 hrs. after treatment” value is recorded as -77 mmHg and the “Duration of antihypertensive effect” value lay within 8 to 24 h. For the same compound, the change in vivo at 0.01 mg/kg in assay [2] (setting [3]) stood at 3.3%. For the same compound, the change in vivo at 0.01 mg/kg in assay [2] (setting [4]) was found to be 4.3%. In addition, the change in vivo at 0.01 mg/kg in assay [2] (setting [5]) is 1.8%.

Regarding `COC(=O)C1=C(C)NC(C)=C(C(=O)OCCCN2CCN(C(c3ccccc3)c3ccccc3)CC2)C1c1cccc([N+](=O)[O-])c1` (stereo not drawn) [Example 37, 3-(4-benzhydryl-1-piperazinyl)propyl methyl 2,6-dimethyl-4-(3-nitrophenyl)-1,4-dihydropyridine-3,5-dicarboxylate], in assay [1], the “Change in blood pressure 1 hr. after treatment” value was -63 mmHg. Also, the “Change in blood pressure 5 hrs. after treatment” value in assay [1] is reported as -30 mmHg. The “Duration of antihypertensive effect” value in assay [1] is on record as “ca. 8 hrs”. For the same compound, the results for the change in vivo at 0.01 mg/kg in assay [2] (setting [3]), in assay [2] (setting [4]) and in assay [2] (setting [5]) were 8.5%, 10.8% and 11.3%, respectively.

Consider `COC(=O)C1=C(C)NC(C)=C(C(=O)OCCN2CCN(c3ccccc3)CC2)C1c1cccc([N+](=O)[O-])c1` (stereo not drawn) [Example 53, methyl 2-(4-phenyl-1-piperazinyl)ethyl 2,6-dimethyl-4-(3-nitrophenyl)-1,4-dihydropyridine-3,5-dicarboxylate], for which, in assay [1], the “Change in blood pressure 1 hr. after treatment” value was -60 mmHg, the “Change in blood pressure 5 hrs. after treatment” value is -34 mmHg and the “Duration of antihypertensive effect” value is “ca. 8 hrs”.

As for `COC(=O)C1=C(C)NC(C)=C(C(=O)OCCN2CCN(c3ccc(C)c(Cl)c3)CC2)C1c1cccc([N+](=O)[O-])c1` (stereo not drawn) [Example 57, 2-[4-(3-chloro-4-methylphenyl)-1-piperazinyl]ethyl methyl 2,6-dimethyl-4-(3-nitrophenyl)-1,4-dihydropyridine-3,5-dicarboxylate], in assay [1], the “Change in blood pressure 1 hr. after treatment” value is -85 mmHg, the “Change in blood pressure 5 hrs. after treatment” value was -69 mmHg and the “Duration of antihypertensive effect” value was in the range of 8 to 24 h.

For `COC(=O)C1=C(C)NC(C)=C(C(=O)OCCN2CCN(c3cccc(Cl)c3Cl)CC2)C1c1cccc([N+](=O)[O-])c1` (stereo not drawn) [Example 58, 2-[4-(2,3-dichlorophenyl)-1-piperazinyl]ethyl methyl 2,6-dimethyl-4-(3-nitrophenyl)-1,4-dihydropyridine-3,5-dicarboxylate], in assay [1], the “Change in blood pressure 1 hr. after treatment” value was -27 mmHg, the “Change in blood pressure 5 hrs. after treatment” value is on record as -39 mmHg and the “Duration of antihypertensive effect” value was 8 to 24 h.

As for `COC(=O)C1=C(C)NC(C)=C(C(=O)OCCN2CCN(C(c3ccccc3)c3ccccc3)CC2)C1c1cccc2nonc12.Cl.Cl` (stereo not drawn) [Example 60, 2-(4-benzhydryl-1-piperazinyl)ethyl methyl 4-(2,1,3-benzoxadiazol-4-yl)-2,6-dimethyl-1,4-dihydropyridine-3,5-dicarboxylate dihydrochloride], in assay [1], the “Change in blood pressure 1 hr. after treatment” value is -98 mmHg, the “Change in blood pressure 5 hrs. after treatment” value is -90 mmHg and the “Duration of antihypertensive effect” value lay within 8 to 24 h.

Take `COC(=O)C1=C(C)NC(C)=C(C(=O)OCCN(C)Cc2ccccc2)C1c1cccc([N+](=O)[O-])c1` (stereo not drawn) [Nicardipine.HCl, reference compound]: the “Change in blood pressure 1 hr. after treatment” value in assay [1] is -38 mmHg. The “Change in blood pressure 5 hrs. after treatment” value in assay [1] is recorded as “+2 mmHg”. In addition, the “Duration of antihypertensive effect” value in assay [1] was less than 5 h. In addition, the change in vivo at 0.01 mg/kg in assay [2] (setting [3]) was -15%; in assay [2] (setting [4]) it was -1.9%; in assay [2] (setting [5]), 0.3%.
